# In PubChem BioAssay AID330 (DTP/NCI, 2004):
# Where “and” joins values, the source holds several entries; their conditions need not be identical. Equal entries are not always repeated. Toxic doses and inconclusive results are not listed.
# System: P388 leukemia ip, CD2F1 mice, survival T/C
# Assay: NCI In Vivo Anticancer Drug Screen. Data for tumor model P388 Leukemia (intraperitoneal) in CD2F1 (CDF1) mice
# Conditions: endpoint: median survival time, higher = longer survival
# Method in brief: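 Mice carrying the transplanted tumor received test compound or vehicle. Survival was recorded in each group, and the value is the treated-group measurement divided by that of the vehicle-treated control group.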
# [1] = dose: 25.0 mg/kg/injection, schedule: Q01DX009 (ip), vehicle: saline with Tween-80
# [2] = dose: 50.0 mg/kg/injection, schedule: Q01DX009 (ip), vehicle: saline with Tween-80
# [3] = dose: 100.0 mg/kg/injection, schedule: Q01DX009 (ip), vehicle: saline with Tween-80
# [4] = dose: 200.0 mg/kg/injection, schedule: Q04DX003 (ip), vehicle: saline
# [5] = dose: 6.25 mg/kg/injection, schedule: Q01DX009 (ip), vehicle: saline
# [6] = dose: 12.5 mg/kg/injection, schedule: Q01DX009 (ip), vehicle: saline
# [7] = dose: 25.0 mg/kg/injection, schedule: Q01DX009 (ip), vehicle: saline
# [8] = dose: 50.0 mg/kg/injection, schedule: Q01DX009 (ip), vehicle: saline
# [9] = dose: 100.0 mg/kg/injection, schedule: Q01DX009 (ip), vehicle: saline
# [10] = dose: 200.0 mg/kg/injection, schedule: Q01DX009 (ip), vehicle: saline
# [11] = dose: 50.0 mg/kg/injection, schedule: Q01DX005 (ip), vehicle: saline with Tween-80
# [12] = dose: 100.0 mg/kg/injection, schedule: Q01DX005 (ip), vehicle: saline with Tween-80
# [13] = dose: 200.0 mg/kg/injection, schedule: Q01DX005 (ip), vehicle: saline with Tween-80
compound,measurement,setting,value
Cc1cn(CC2C=CC(CS[As](C)C)O2)c(=O)[nH]c1=O (stereo unspecified),T/C,"dose: 12.5 mg/kg/injection, schedule: Q01DX009 (ip), vehicle: distilled water + Tween-80",99 % of control
same,T/C,"dose: 25.0 mg/kg/injection, schedule: Q01DX009 (ip), vehicle: distilled water + Tween-80",108 % of control
same,T/C,"dose: 50.0 mg/kg/injection, schedule: Q01DX009 (ip), vehicle: distilled water + Tween-80",101 % of control
same,T/C,"dose: 100.0 mg/kg/injection, schedule: Q01DX009 (ip), vehicle: distilled water + Tween-80",119 % of control
CCS,T/C,[1],86 % of control
same,T/C,[2],91 % of control
same,T/C,[3],92 % of control
same,T/C,"dose: 200.0 mg/kg/injection, schedule: Q01DX009 (ip), vehicle: saline with Tween-80",88 % of control
COc1ccc(OC)c2c(Cl)cc(NCCCCCCCCNc3cc(Cl)c4c(OC)ccc(OC)c4n3)nc12,T/C,"dose: 30.0 mg/kg/injection, schedule: Q01DX005 (ip), vehicle: Klucel (hydroxypropylcellulose) (HPC)",101 % of control
same,T/C,"dose: 60.0 mg/kg/injection, schedule: Q01DX005 (ip), vehicle: Klucel (hydroxypropylcellulose) (HPC)",101 % of control
same,T/C,"dose: 120.0 mg/kg/injection, schedule: Q01DX005 (ip), vehicle: Klucel (hydroxypropylcellulose) (HPC)",100 % of control
same,T/C,"dose: 240.0 mg/kg/injection, schedule: Q01DX005 (ip), vehicle: Klucel (hydroxypropylcellulose) (HPC)",100 % of control
BrCC1CN=C(c2ccccc2)O1 (stereo unspecified),T/C,"dose: 60.0 mg/kg/injection, schedule: Q01DX005 (ip), vehicle: saline",104 % of control
same,T/C,"dose: 120.0 mg/kg/injection, schedule: Q01DX005 (ip), vehicle: saline",101 % of control
same,T/C,"dose: 240.0 mg/kg/injection, schedule: Q01DX005 (ip), vehicle: saline",101 % of control
COc1c(OC)c2oc(=O)c3cc4c(c5oc(=O)c(c1OC)c2c53)OCO4,T/C,"dose: 1.75 mg/kg/injection, schedule: Q01DX005 (ip), vehicle: other",88 % of control
same,T/C,"dose: 3.5 mg/kg/injection, schedule: Q01DX005 (ip), vehicle: other",86 % of control
same,T/C,"dose: 7.0 mg/kg/injection, schedule: Q01DX005 (ip), vehicle: other",86 % of control
c1ccc(N2CCSCC2)cc1,T/C,"dose: 50.0 mg/kg/injection, schedule: Q04DX003 (ip), vehicle: saline",104 % of control
same,T/C,"dose: 66.0 mg/kg/injection, schedule: Q04DX003 (ip), vehicle: saline with Tween-80",150 % of control
same,T/C,"dose: 100.0 mg/kg/injection, schedule: Q04DX003 (ip), vehicle: saline with Tween-80",204 % of control
same,T/C,"dose: 150.0 mg/kg/injection, schedule: Q04DX003 (ip), vehicle: saline with Tween-80",190 % of control
same,T/C,[4],109 % of control
CN=C(c1ccc(NC(=O)c2ccc(C(=O)Nc3ccc(C(=NC)N4CCCC4)cc3)cc2)cc1)N1CCCC1,T/C,"dose: 0.39 mg/kg/injection, schedule: Q01DX005 (ip), vehicle: Klucel (hydroxypropylcellulose) (HPC)",99 % of control
same,T/C,"dose: 0.78 mg/kg/injection, schedule: Q01DX005 (ip), vehicle: Klucel (hydroxypropylcellulose) (HPC)",93 % of control
same,T/C,"dose: 1.56 mg/kg/injection, schedule: Q01DX005 (ip), vehicle: Klucel (hydroxypropylcellulose) (HPC)",94 % of control
same,T/C,"dose: 3.12 mg/kg/injection, schedule: Q01DX005 (ip), vehicle: Klucel (hydroxypropylcellulose) (HPC)",97 % of control
O=C(Cc1nc2ccccc2nc1CC(=O)c1cccnc1)c1cccnc1,T/C,"dose: 60.0 mg/kg/injection, schedule: Q01DX005 (ip), vehicle: saline with Tween-80",102 % of control
same,T/C,"dose: 120.0 mg/kg/injection, schedule: Q01DX005 (ip), vehicle: saline with Tween-80",93 % of control
same,T/C,"dose: 240.0 mg/kg/injection, schedule: Q01DX005 (ip), vehicle: saline with Tween-80",93 % of control
C=C[C@@](C)(O)CC/C=C(/C)CCC=C(C)C,T/C,[1],110 % of control
same,T/C,[2],110 % of control
same,T/C,[3],110 % of control
same,T/C,"dose: 100.0 mg/kg/injection, schedule: Q04DX003 (ip), vehicle: saline",109 % of control
same,T/C,[4],100 % of control
same,T/C,"dose: 400.0 mg/kg/injection, schedule: Q04DX003 (ip), vehicle: saline",113 % of control
CCCCCCCCCCCCCCCCCC[n+]1cccc(C2CCCN2C)c1 (stereo unspecified) (tested in a mixture with another compound),T/C,"dose: 25.0 mg/kg/injection, schedule: Q01DX009 (ip), vehicle: Klucel (hydroxypropylcellulose) (HPC)",104 % of control
O=C1C(=C(C(F)(F)F)C(F)(F)F)C2CCC1C2 (stereo unspecified),T/C,"dose: 3.13 mg/kg/injection, schedule: Q01DX009 (ip), vehicle: saline with Tween-80",100 % of control
same,T/C,"dose: 6.25 mg/kg/injection, schedule: Q01DX009 (ip), vehicle: saline with Tween-80",110 % of control
same,T/C,"dose: 12.5 mg/kg/injection, schedule: Q01DX009 (ip), vehicle: saline with Tween-80",100 % of control
COC(OC(CO)C(O)S(=O)(=O)O)C(O)S(=O)(=O)O (stereo unspecified),T/C,[5],100 % of control
same,T/C,[6],105 % of control
same,T/C,[7],118 % of control
same,T/C,[8],173 % of control
same,T/C,[9],155 % of control
same,T/C,[10],157 % of control
CCCCCCC(=O)/C=C/c1ccc(OC(=O)c2ccc(Cl)cc2)cc1,T/C,[5],97 % of control
same,T/C,[6],94 % of control
same,T/C,[7],94 % of control
same,T/C,[9],92 % of control
same,T/C,[10],92 % of control
CC(=O)Nc1ccc(S(=O)(=O)Oc2noc3ccc(Br)cc23)cc1,T/C,"dose: 50.0 mg/kg/injection, schedule: Q01DX005 (ip), vehicle: Klucel (hydroxypropylcellulose) (HPC)",98 % of control
same,T/C,"dose: 100.0 mg/kg/injection, schedule: Q01DX005 (ip), vehicle: Klucel (hydroxypropylcellulose) (HPC)",97 % of control
same,T/C,"dose: 200.0 mg/kg/injection, schedule: Q01DX005 (ip), vehicle: Klucel (hydroxypropylcellulose) (HPC)",90 % of control
COc1ccc(C(=O)/C=C/c2ccc(OC)c(OC)c2OC)c(OC(C)=O)c1,T/C,"dose: 100.0 mg/kg/injection, schedule: Q04DX003 (ip), vehicle: Klucel (hydroxypropylcellulose) (HPC)",98 % of control
same,T/C,"dose: 200.0 mg/kg/injection, schedule: Q04DX003 (ip), vehicle: Klucel (hydroxypropylcellulose) (HPC)",91 % of control
same,T/C,"dose: 400.0 mg/kg/injection, schedule: Q04DX003 (ip), vehicle: Klucel (hydroxypropylcellulose) (HPC)",93 % of control
CCOC(=O)/C=C/C(CO)OC(/C=C/C(=O)OCC)n1cnc2c(N)ncnc21 (stereo unspecified),T/C,"dose: 100.0 mg/kg/injection, schedule: Q04DX002 (ip), vehicle: Klucel (hydroxypropylcellulose) (HPC)",101 % of control
same,T/C,"dose: 200.0 mg/kg/injection, schedule: Q04DX002 (ip), vehicle: Klucel (hydroxypropylcellulose) (HPC)",108 % of control
same,T/C,"dose: 400.0 mg/kg/injection, schedule: Q04DX002 (ip), vehicle: Klucel (hydroxypropylcellulose) (HPC)",111 % of control
CCCCCCC(=O)/C=C/c1ccccc1O,T/C,[8],108 % of control
same,T/C,[9],99 % of control
same,T/C,[10],112 % of control
CC(=O)Oc1ccc([N+](=O)[O-])cc1[N+](=O)[O-],T/C,"dose: 6.25 mg/kg/injection, schedule: Q04DX002 (ip), vehicle: Klucel (hydroxypropylcellulose) (HPC)",97 % of control
same,T/C,"dose: 12.5 mg/kg/injection, schedule: Q04DX002 (ip), vehicle: Klucel (hydroxypropylcellulose) (HPC)",103 % of control
same,T/C,"dose: 25.0 mg/kg/injection, schedule: Q04DX002 (ip), vehicle: Klucel (hydroxypropylcellulose) (HPC)",100 % of control
O=c1[nH]c(=O)c2ncsc2[nH]1,T/C,"dose: 25.0 mg/kg/injection, schedule: Q01DX001 (ip), vehicle: saline with Tween-80",100 % of control
same,T/C,"dose: 50.0 mg/kg/injection, schedule: Q01DX001 (ip), vehicle: saline with Tween-80",100 % of control and 104 % of control
same,T/C,"dose: 100.0 mg/kg/injection, schedule: Q01DX001 (ip), vehicle: saline with Tween-80",100 % of control and 113 % of control
same,T/C,"dose: 200.0 mg/kg/injection, schedule: Q01DX001 (ip), vehicle: saline with Tween-80",118 % of control
CC(=O)OC12CC3CCC4C(CCC5(C)C(C(C)CCCC(C)C)CCC45)C3(C)CC1C(Cl)C2=O (stereo unspecified),T/C,[11],99 % of control
same,T/C,[12],96 % of control
same,T/C,[13],96 % of control
BrCc1cn(Cc2ccccc2)nn1,T/C,[8],97 % of control
same,T/C,[9],97 % of control
CCCCN1CCNC1=S,T/C,[11],100 % of control
same,T/C,[12],102 % of control
same,T/C,[13],102 % of control
COC(=O)C1=CN(C)/C(=C/C=C(\C#N)C(=O)OC)C(C#N)=C1N,T/C,"dose: 100.0 mg/kg/injection, schedule: Q01DX001 (ip), vehicle: Klucel (hydroxypropylcellulose) (HPC)",96 % of control
same,T/C,"dose: 200.0 mg/kg/injection, schedule: Q01DX001 (ip), vehicle: Klucel (hydroxypropylcellulose) (HPC)",97 % of control
same,T/C,"dose: 400.0 mg/kg/injection, schedule: Q01DX001 (ip), vehicle: Klucel (hydroxypropylcellulose) (HPC)",96 % of control
